Patent US20240165072A1, “PHARMACEUTICAL COMPOSITION FOR ALLEVIATING OR TREATING HAIR LOSS THROUGH INFLAMMATION AMELIORATION OF HUMAN DERMAL PAPILLA CELLS AND PERIPHERAL CELLS AND INHIBITION OF 5A-REDUCTASE EXPRESSION” (BEN'S LAB. CO. LTD., priority 2021, published 2024)
In brackets after ≈: the same amount, converted by molar mass. Read-outs that look alike come from different tables or passages of the source.

Columns and labels:
[1] = system: nitric oxide production in RAW 264.7 cells; assay: Inhibitory effect on nitric oxide production in macrophages (Griess); type: cell-based, mouse; details: LPS 1 μg/ml, RAW 264.7 (FIG. 2); for inhibition of nitric oxide production, rank among the three samples: compared with kaempferol
Method: RAW 264.7 cells, which is a mouse macrophage cell line, were dispensed in a 24-well plate at a concentration of 2×10^5 cells/well, and cultured in an incubator at 37° C. under 5% CO2 for 24 hours. Epigallocatechin gallate (EGCG), genistein, and kaempferol, which were samples dissolved in DMSO, were added thereto according to the concentrations. At this time, the final concentration of DMSO was adjusted to 0.1%. After 30 minutes, LPS (lipopolysaccharide), which is an inflammation inducing substance, was added at a concentration of 1 μg/ml. After that, these were cultured in an incubator at 37° C. under 5% CO2 for 24 hours.
To quantify nitric oxide, 50 ? of Griess reagent A (5% phosphoric acid, 1% sulfanilamide) was added to 50 ? of the cell culture medium, and then the mixture was allowed to stand in a dark place for 5 minutes. 50 ? of Griess reagent B (0.1% N-(1-naphthyl)ethylenediamine dihydrochloride) was further added thereto, and allowed to react in a dark place for 5 minutes. The absorbance of this reactant was measured at 540 nm, which was compared with the standard curve to calculate the final concentration of nitrogen monoxide. A standard curve was obtained by reacting in the same manner as above using sodium nitrite instead of the cell culture medium and then measuring the absorbance.

[2] = ABTS radical scavenging ability; type: biochemical; details: for ABTS radical scavenging ability (IC50): 10 minutes, absorbance 734 nm
Method: The ABTS radical scavenging ability was calculated according to the following Equation.
ABTS radical scavenging ability (%)=[1−(AB)/C]×100
wherein, A is the absorbance of the sample-added group (ABTS+sample); B is the absorbance of the distilled water-added group (sample+distilled water) instead of ABTS; and C is the absorbance of the ethanol-added group (ABTS+ethanol) instead of the sample.

[3] = system: TNF-α release in mouse macrophages RAW 264.7 cells; assay: Inhibition of TNF-α secretion in macrophages (ELISA); type: cell-based; details: for IC50: Mus musculus, RAW264.7, LPS 100 ng/ml
Method: (§1) Mouse macrophage RAW 264.7 was dispensed into a 24-well plate at a concentration of 2×10^5 cells/well, and cultured in an incubator at 37° C. under 5% CO2 using a DMEM medium for 24 hours, and then samples were added according to the concentrations. Thirty minutes after addition of the sample, LPS (100 ng/ml) was added and cultured at 37° C. for 20 hours to collect the culture medium. The secreted IL-6 and TNF-α were respectively quantified using Mouse IL-6 ELISA kit (Invitrogen, Thermo Scientific) and Mouse TNF-α ELISA kit (Invitrogen, Thermo Scientific).

[4] = system: histamine release in RBL-2H3 cells; assay: Inhibition of histamine release in RBL-2H3 cells (Compound 48/80); type: cell-based, rat
Method: White rat basophil leukemia cells (RBL-2H3) were dispensed into a 24-well plate at a concentration of 1×10^5 cells/well, and cultured for 24 hours. Samples were added according to the concentrations. After 1 hour, Compound 48/80 (1 mg/ml), which triggers an allergic reaction, was added and cultured for 20 minutes. The well plate was allowed to stand in a refrigerator at 4° C. for 10 minutes, and then the medium was collected and the amount of histamine released into the medium was quantified using the Histamine ELISA kit (Neogen).

[5] = DPPH radical scavenging ability; type: biochemical; details: for DPPH radical scavenging ability (IC50): DPPH 300 μM, 30 minutes
Method: 100 ? l sample and the same amount of DPPH (2,2-diphenyl-1-picrylhydrazyl, 300 μM) solution were mixed in a 96-well plate, and reacted in a dark place for 30 minutes, and the absorbance was measured at 520 nm. The same amount of ethanol was reacted instead of the sample, and the blank value was calculated according to the following Equation.
DPPH radical scavenging ability (%)=[1−(A−B)/C]×100
wherein, A is the absorbance of the sample-added group (DPPH+sample); B is the absorbance of the ethanol-added group (sample+ethanol) instead of DPPH; and C is the absorbance of the ethanol-added group (DPPH+ethanol) instead of the sample.

[6] = system: 5α-reductase type II; assay: Inhibition of 5α-reductase type II expression in human dermal papilla cells (Western blot); type: cell-based; details: HFDPC; testosterone 10 μM; 72 hours; samples 10, 20 μg/ml; order genistein, kaempferol, EGCG (FIG. 4)
Method: The medium was then removed, and cells were collected by washing with PBS to extract proteins. To extract a protein, a lysis buffer for radio immunoprecipitation assay (RIPA) (sodium chloride 150 mM, sodium dodecyl sulfate (SDS) 0.1%, tris-hydrochloric acid (Tris-HCl: pH 7.5) 50 mM, ethylenediaminetetraacetic acid (EDTA) 2 mM, sodium deoxycholate 0.5%, Triton X-100 1%) was added and reacted, and then centrifuged at 10,000 rpm and 4° C. for 15 minutes to collect the supernatant. Then, the absorbance was measured at 595 nm to determine the protein concentration of each sample. These cell protein samples were mixed with sodium dodecyl sulfate (SDS) and a stain, and subjected to electrophoresis on a 12% SDS polyacrylamide gel.

[7] = system: IL-6 release in mouse macrophages RAW 264.7 cells; assay: Inhibition of IL-6 secretion in macrophages (ELISA); type: cell-based; details: for IC50: Mus musculus, RAW264.7, LPS 100 ng/ml
Method: as §1

[8] = system: IL-6 secretion in human follicle dermal papilla cells (HFDPC); details: TST or DHT 10 μM, 72 hours (FIG. 3)
Method: Human follicle dermal papilla cells (HFDPC) were dispensed into a 12-well plate at a concentration of 1×10^5 cells/well, and cultured for 24 hours. After that, the medium was replaced with Dulbecco's modified eagle's medium (DMEM) containing no fetal bovine serum (FBS), and subjected to starvation for 24 hours, and then samples were added according to the concentrations (2, 5, 10, 20 μg/ml). […] Then, the medium was collected, and IL-6 secreted in the medium was quantified using a Human IL-6 ELISA kit (Invitrogen, Thermo Scientific).

[9] = system: cyclooxygenase-2 (COX-2); assay: COX-2 expression inhibition in LPS-stimulated RAW 264.7 (Western blot); type: cell-based, mouse; details: 25 μg/ml, LPS 100 ng/ml, Western blot (FIG. 1)
Method: (§2) Mouse macrophage RAW 264.7 was dispensed into a 6-well plate at a concentration of 6×10^5 cells/well (number of cells per well), and cultured in an incubator at 37° C. under 5% CO2 using a DMEM Dulbecco's Modified Eagle's Medium (Sigma-Aldrich, Cat. No. D7777) for 24 hours, and then samples were added according to the concentrations.
(§3) Thirty minutes after the addition of the sample, lipopolysaccharide (LPS, 100 ng/ml) was added, and further cultured for 20 hours. After that, the medium was removed, washed with phosphate buffered saline (PBS) to collect the cells. In order to extract the protein, a lysis buffer for radioimmunoprecipitation assay (RIPA; sodium chloride 150 mM, sodium dodecyl sulfate (SDS) 0.1%, tris-hydrochloric acid (Tris-HCl: pH 7.5) 50 mM, ethylenediaminetetraacetic acid (EDTA) 2 mM, sodium deoxycholate 0.5%, Triton X-100 1%) was added and reacted, and then centrifuged at 10,000 rpm and 4° C. for 15 minutes to obtain the supernatant. The absorbance of the supernatant was then measured at 595 nm to determine the protein concentration of each sample. Then, the cell protein sample was mixed with sodium dodecyl sulfate (SDS) and a stain, and subjected to electrophoresis on a 12% SDS polyacrylamide gel. […]

[10] = system: 5-lipoxygenase (5-LO); assay: Inhibition of 5-lipoxygenase (5-LO) expression in RBL-2H3 (Western blot); type: cell-based, rat; details: Compound 48/80 1 mg/ml (FIG. 5)
Method: White rat basophilic leukemia cells (RBL-2H3) were dispensed into a 6-well plate at a concentration of 3×10^5 cells/well, and cultured in an incubator at 37° C. under 5% CO2 using a DMEM medium for 24 hours. Samples were added according to the concentrations, cultured for 24 hours, and then Compound 48/80 (1 mg/ml), which is substance that induces an allergic reaction, was added, and cultured for 1 hour. After that, the medium was removed, and washed with PBS to collect the cells, and then proteins were extracted. To extract protein, lysis buffer for radioimmunoprecipitation assay (RIPA; sodium chloride 150 mM, sodium dodecyl sulfate (SDS) 0.1%, tris-hydrochloric acid (Tris-HCl: pH 7.5) 50 mM, ethylenediaminetetraacetic acid (EDTA) 2 mM, sodium deoxycholate 0.5%, Triton X-100 1%) was added and reacted, and then centrifuged at 10,000 rpm and 4° C. for 15 minutes to take the supernatant. The absorbance thereof was then measured at 595 nm to determine the protein concentration of each sample. Then, the cell protein sample was mixed with sodium dodecyl sulfate (SDS) and a stain, and subjected to electrophoresis on a 12% SDS polyacrylamide gel. […]

[11] = system: inducible nitric oxide synthase (iNOS); assay: iNOS expression inhibition in LPS-stimulated RAW 264.7 (Western blot); type: cell-based, mouse; details: 25 μg/ml, LPS 100 ng/ml, Western blot (FIG. 1)
Method: as §2, §3

[12] = Rattus norvegicus, Compound 48/80 1 mg/ml
[13] = highest inhibitory effect among EGCG, genistein, kaempferol

Row | Structure (SMILES) | inhibition of nitric oxide production, rank among the three samples [1] | ABTS radical scavenging ability (IC50) [2] [µg/mL] | DPPH radical scavenging ability (IC50) [5] [µg/mL] | inhibition of 5α-reductase type II expression [6] | IC50 ([3]; 20 hours) [µg/mL] | IC50 [4, 12] [µg/mL] | IC50 ([7]; 20 hours) [µg/mL] | further results
1 | O=C(O[C@@H]1Cc2c(O)cc(O)cc2O[C@@H]1c1cc(O)c(O)c(O)c1)c1cc(O)c(O)c(O)c1 [Epigallocatechin gallate (EGCG), Epigallocatechin gallate] | next most inhibitory | 1.65 | 3.40 | effectively inhibited |  |  |  | TNF-α (IC50) ([3]; LPS 100 ng/ml, 20 hours): 83.68 ± 3.45 µg/mL; histamine release inhibition (IC50) ([4]; Compound 48/80 1 mg/ml): 50.0 ± 9.80 µg/mL; IL-6 (IC50) ([7]; LPS 100 ng/ml, 20 hours): 98.99 ± 10.87 µg/mL
2 | O=c1c(-c2ccc(O)cc2)coc2cc(O)cc(O)c12 [Genistein] | slightly decreased the inhibitory power |  |  | effectively inhibited | 14.99 ± 0.11 (≈ 55.5 µM) | > 1000 | 8.92 ± 0.08 (≈ 33 µM) | ABTS radical scavenging ability ([2]; at 100 ppm): 5.29% at 100 ppm; inhibition at 1000 µg/mL ([4]; Rattus norvegicus, at 1000 μg/ml): 46%; DPPH radical scavenging ability ([5]; at 100 ppm): 5.18% at 100 ppm; inhibition of the release of IL-6 by DHT or TST ([8]; 5 μg/ml): almost completely inhibited; inhibition of COX-2 expression [9]: mostly inhibited the expression of COX-2
3 | O=c1c(O)c(-c2ccc(O)cc2)oc2cc(O)cc(O)c12 [Kaempferol] |  | 6.18 ± 0.08 | 11.66 ± 0.30 | effectively inhibited | 13.6 ± 0.72 (≈ 47.4 µM) | 0.2 ± 0.02 (≈ 0.699 µM) | 5.93 ± 0.07 (≈ 20.7 µM) | inhibition of nitric oxide production ([1]; 20 μg/ml): inhibited almost to the control level; inhibition of TNF-α in macrophages (in words) [3, 13]: effectively inhibited; inhibition at 0.2 µg/mL ([4]; Rattus norvegicus, at 0.2 μg/ml): > 50%; inhibition of the release of IL-6 by DHT or TST ([8]; 10 μg/ml): almost completely inhibited; inhibition of 5-LO expression [10]: effectively inhibits 5-LO expression at the lowest concentration; inhibition of IL-6 in macrophages (in words) [7, 13]: effectively inhibited; inhibition of iNOS expression [11]: inhibited the expression of iNOS to the control (CON) levels
